For assay [1], the system named is FHR-PAH. As to the kind of experiment: Fawn-hooded hypertensive rat model of established PAH, right heart catheterisation and histology. It is filed as in vivo, Ratten. The following applies: FHR-PAH rats, three times weekly for two weeks. An excerpt:
(§1) Um das therapeutische Potenzial der EP300/CREBBP-Hemmung in vivo weiter zu erforschen, haben die Erfinder Versuchstiere in drei verschiedenen Nagetiermodellen mit etablierter PAH mit der Substanz SGC-CBP30 behandelt, wobei SGC-CBP30 durch intra-tracheale Vernebelung über zwei Wochen lang dreimal wöchentlich verabreicht wurde. Es wurden folgende drei verschiedenen Nagetiermodelle für eine PAH (FHR-PAH, MCT-PAH und SuHx-PAH) getestet: • Fawn-hooded hypertensive Ratten (FHR): Das ist ein genetischer Rattenstamm, bei dem PAH im Alter spontan auftritt und der ähnliche PAH-Anomalien aufweist, wie sie bei IPAH bei Menschen nach 40 Wochen auftreten. • Durch Monocrotalin (MCT) induziertes PAH-Rattenmodell. • Ein SUGEN5416/chronische Hypoxie (SuHx)-Rattenmodell für PAH, bei dem die Ratten eine einmalige Injektion von SUGEN5416 erhielten und anschließend einer chronischen Hypoxie (10% O2) ausgesetzt wurden (SuHx-PAH).
(§2) Für die MCT-PAH wurden männlichen und weiblichen SD-Ratten (Sprague-Dawley-Ratten) subkutan 60 mg/kg MCT (Sigma, Katalog: C2401) injiziert, um PAH zu induzieren. Bei der SuHx-PAH erhielten SD-Ratten eine einmalige subkutane Injektion von SUGEN5416 (20 mg/kg) und wurden drei Wochen lang einer normobaren Hypoxie ausgesetzt, bevor sie für zwei Wochen an die Raumluft zurückkehrten. Zwei Wochen nach der MCT-Injektion bzw. drei Wochen nach der SUGEN5416-Injektion (sobald PAH festgestellt wurde) wurden die Ratten nach dem Zufallsprinzip in vier Gruppen eingeteilt und erhielten zwei Wochen lang dreimal wöchentlich entweder Vehikel (Verabreichung von 1 % Methylcellulose in destilliertem Wasser oder intratracheale Vernebelung von 4 % DMSO in PBS als Negativkontrolle), SGC-CBP30 (Verabreichung von 10 mg/kg in 1 % Methylcellulose + destilliertem Wasser) oder SGC-CBP30 (intratracheale Vernebelung von 275 nmol/kg in 4 % DMSO + PBS). Einjährige männliche und weibliche FHR-Ratten mit etablierter PAH wurden in dieselben vier Gruppen wie beim MCT-Modell eingeteilt und den selben Behandlungsmethoden unterzogen. Für die Vernebelung wurden die Ratten mit 3%igem Isofluran betäubt. Ein 16-Gauge-Katheter wurde in die Luftröhre eingeführt. Ein Vernebler (Aerogen) wurde an den Katheter angeschlossen, und für jede Behandlung wurde ein Volumen von 50 µl SGC-CBP30 oder dessen Vehikel (als Negativkontrolle) verabreicht. Nach zweiwöchiger Behandlung wurde eine Rechtsherzkatheteruntersuchung bei geschlossenem Thorax durchgeführt, um folgende hämodynamischen Daten zu erfassen: Systolischer Rechtsventrikulärer Druck (RVSP), mittlerer PA-Druck (mPAP), Herzzeitvolumen (CO) und Schlagvolumen (SV). Der Gesamtwiderstand der Lunge (TPR) wurde durch Division von mPAP durch CO ermittelt. Nach der hämodynamischen Messung wurden den Ratten Gewebeproben entnommen. Die Experimente wurden gemäß den Richtlinien des Canadian Council on Animal Care durchgeführt. Alle Protokolle wurden von der institutionellen Ethikkommission für Tiere (Tierschutzausschuss der Universität Laval) geprüft und genehmigt (Protokollnummer 2019-018-2). Alle Experimente folgten den Richtlinien für die präklinische Forschung bei PAH.
(§3) Der schwarze Balken zeigt 50 µm an. Die Daten sind als Mittelwert ± SD angegeben und die statistische Analyse wurde mit einem ungepaarten Student's t-Test durchgeführt. FHR, MCT und SU5416/chronische Hypoxie-Ratten: *P<0,05, **P<0,01 und ***P<0,001 gegenüber den mit Vehikel behandelten Gruppen. MCT-Rattenmodell: §P<0,05, §§P<0,01 und §§§P<0,001 gegenüber der unbehandelten Kontrollgruppe. • A: Schematische Darstellung des Versuchsaufbaus für die Behandlung von Fawn-hooded hypertensive Ratten (FHR) mit dem EP300/CREBBP-Inhibitor SGC-CBP30, der selektiv auf die Acetyltransferase EP300/CREBBP wirkt. […]

Assay [2] has as its system SuHx-PAH. As to the kind of experiment: SUGEN5416/chronic hypoxia PAH rat model, right heart catheterisation and histology. It is filed as in vivo, Ratten. The following applies: SuHx-PAH rats, three times weekly for two weeks, intratracheal nebulisation 275 nmol/kg.
Source text: as §1, §2, §3

[3] abbreviates: intratracheal nebulisation 275 nmol/kg, vs vehicle.
[4] abbreviates: start three weeks after SUGEN5416.

Consider one compound from patent EP4257135A1, “BENZIMIDAZOLE DERIVATIVES FOR PULMONARY ARTERIAL HYPERTENSION” (Justus-Liebig-Universität Gießen, priority 2022, dated 2023).

Molecules are shown by their SMILES.

Turning to `COc1ccc(CCc2nc3cc(-c4c(C)noc4C)ccc3n2C[C@H](C)N2CCOCC2)cc1Cl` [SGC-CBP30, 2-[2-(3-Chloro-4-methoxyphenyl)ethyl]-5-(3,5-dimethyl-1,2-oxazol-4-yl)-1-[(S)-2-(morpholin-4-yl)propyl]-1H-benzimidazole], the “molekulare Marker für Myokardhypertrophie” value in assay [1] was “signifikant abgeschwächt”. In addition, the “mediale Wanddicke der distalen PAs” value in assay [1] (intratracheal nebulisation 275 nmol/kg) is recorded as “signifikant verringert”. The TPR entry in assay [1] (intratracheal nebulisation 275 nmol/kg, mPAP divided by CO) is given as “signifikanten Senkung”. Further, in assay [1] (setting [3]), the CO entry is “verbesserten sich nach der Behandlung mit der Substanz SGC-CBP30 bei FHR-PAH und MCT-PAH signifikant”, the RVSP result is “signifikanten Senkung”, the SV entry was “verbesserten sich nach der Behandlung mit der Substanz SGC-CBP30 bei FHR-PAH und MCT-PAH signifikant” and the mPAP entry is “signifikanten Senkung”. Moreover, in assay [2] (setting [4]), the RVSP entry was “signifikanten Senkung” and the mPAP result is given as “signifikanten Senkung”. Besides, in assay [2], the CO entry is given as “verbesserte CO und SV auch bei SUGEN5416/chronischer Hypoxie-PAH signifikant”, the SV entry is given as “verbesserte CO und SV auch bei SUGEN5416/chronischer Hypoxie-PAH signifikant” and the “mediale Wanddicke der distalen PAs” value is listed as “signifikant verringert”. Besides, the TPR result in assay [2] (mPAP divided by CO) is “signifikanten Senkung”.
